Counter-ions that a name gives are not always drawn. Like-named read-outs stand apart in the source and are kept apart here.
Legend:
Assay type in all cases: biochemical
recombinant human VAP-1 = biological target: T1, recombinant human VAP-1 (Homo sapiens, UniProt Q16853); assay: Activity on recombinant human VAP-1, Amplex Red HRP-coupled hydrogen peroxide assay, benzylamine substrate; conditions: recombinant human VAP-1, benzylamine substrate, read-out: Inhibitory Activity (IC50, nM) human VAP-1
T1 construct: purchased R&D systems
T1 sequence (Q16853 1-763): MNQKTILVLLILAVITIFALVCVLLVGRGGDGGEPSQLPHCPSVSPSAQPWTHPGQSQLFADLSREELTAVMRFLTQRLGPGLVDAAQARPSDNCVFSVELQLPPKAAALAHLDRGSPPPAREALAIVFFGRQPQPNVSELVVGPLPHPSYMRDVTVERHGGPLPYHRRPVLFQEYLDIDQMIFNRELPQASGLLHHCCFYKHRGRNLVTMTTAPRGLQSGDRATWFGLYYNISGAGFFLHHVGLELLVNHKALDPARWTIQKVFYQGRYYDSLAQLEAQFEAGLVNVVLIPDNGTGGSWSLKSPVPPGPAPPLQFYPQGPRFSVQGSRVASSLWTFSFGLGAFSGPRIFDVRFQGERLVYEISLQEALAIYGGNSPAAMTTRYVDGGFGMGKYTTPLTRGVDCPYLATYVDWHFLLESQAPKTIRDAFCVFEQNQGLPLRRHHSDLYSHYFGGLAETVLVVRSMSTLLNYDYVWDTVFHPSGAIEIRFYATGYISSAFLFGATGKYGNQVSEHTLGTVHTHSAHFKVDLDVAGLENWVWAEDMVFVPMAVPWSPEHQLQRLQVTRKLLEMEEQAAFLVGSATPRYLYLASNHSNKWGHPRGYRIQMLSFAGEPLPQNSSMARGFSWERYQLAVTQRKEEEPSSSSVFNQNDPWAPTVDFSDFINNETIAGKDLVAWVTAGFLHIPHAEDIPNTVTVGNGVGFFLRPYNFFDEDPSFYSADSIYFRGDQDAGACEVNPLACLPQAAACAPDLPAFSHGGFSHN
In short: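 Fluorescence of resorufin formed from H2O2 (ex 544 nm, em 590 nm) was tracked for 1-2 h after adding 1 mM benzylamine, 200 uM Amplex Red and 1 U/mL HRP to enzyme pretreated with compound for 30 min at 37 °C. IC50 values derive from four-variable logistic fits.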

[1] = biological target: T2, recombinant human MAO-A (monoamine oxidase-A) (Homo sapiens, UniProt P21397); assay: Activity on recombinant human MAO-A, Amplex Red method, 0.5 mM tyramine substrate; conditions: read-out: Inhibitory Activity (IC50, nM) MAO-A
T2 construct: purchased Sigma-Aldrich
T2 sequence (P21397 1-527): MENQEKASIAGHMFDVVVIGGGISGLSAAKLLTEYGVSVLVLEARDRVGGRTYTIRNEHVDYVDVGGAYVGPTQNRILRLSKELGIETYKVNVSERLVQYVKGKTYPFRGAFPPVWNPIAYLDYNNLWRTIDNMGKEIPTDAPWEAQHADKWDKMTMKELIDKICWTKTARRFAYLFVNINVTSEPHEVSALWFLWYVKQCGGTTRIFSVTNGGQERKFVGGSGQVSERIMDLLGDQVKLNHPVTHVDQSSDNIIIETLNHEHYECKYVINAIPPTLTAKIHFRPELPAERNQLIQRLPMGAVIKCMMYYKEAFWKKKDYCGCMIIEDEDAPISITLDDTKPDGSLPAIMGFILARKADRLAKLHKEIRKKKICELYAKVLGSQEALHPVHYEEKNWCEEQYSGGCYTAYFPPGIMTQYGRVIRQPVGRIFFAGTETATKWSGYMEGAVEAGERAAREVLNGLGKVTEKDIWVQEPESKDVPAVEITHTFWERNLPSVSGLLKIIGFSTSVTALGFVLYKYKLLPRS
Procedure: The compounds according to the present technology were evaluated in terms of activity on recombinant human VAP-1 (R&D systems) by measuring the level of hydrogen peroxide in horseradish peroxidase (HRP)-coupled reaction using Amplex Red Hydrogen Peroxide Assay Kit (Molecular Probes, Invitrogen, USA). The experiment was carried out at room temperature using benzylamine as a substrate. In the HRP-coupled reaction, hydrogen peroxide oxidation of 10-acetyl-3,7-dihydroxyphenoxazine (Amplex Red reagent) produces resorufin, which is a highly fluorescent compound. Briefly, the test compound was dissolved in dimethyl sulfoxide (DMSO) at a concentration of 20 mM. The dose-response assessment was made by 1:3 serial dilution in DMSO, thereby creating an 8 point curve. The concentration of the upper part was controlled according to the efficacy of the compounds, followed by dilution with a reaction buffer solution to obtain a final DMSO concentration less than 1%. To each well of a 96 black well plate, human VAP-1 purified in 50 mM sodium phosphate buffer solution (pH7.4) was added. The test compounds dissolved in DMSO were incubated with the human VAP-1 enzymes at 37° C. for 30 minutes. After 30-minute incubation, each well is added with a reaction mixture containing 200 uM Amplex Red reagent prepared from 50 mM sodium phosphate buffer solution (pH 7.4), 1 mM benzylamine, and 1 U/mL HRP. Fluorescence intensity was measured at several time points during 1-2 hours using a microplate reader (Flexstation3, Molecular Devices) under the wavelength condition exciting at 544 nm and reading the emission at 590 nm. The inhibitory effect of the compounds was measured as a decrease (%) in the signal rate as compared to the control group without any inhibitor (only diluted DMSO). Data was fixed to a logistic model with four variables and IC50 value was calculated using GraphPad Prism program.
In addition, the compounds according to the present technology were evaluated in terms of activity on a recombinant human MAO-A (monoamine oxidase-A, Sigma-Aldrich) and a recombinant human MAO-B (monoamine oxidase-B, Sigma-Aldrich) by using as substrates, 0.5 mM tyramine and 1 mM benzylamine, respectively, with a method similar to the activity evaluation method for recombinant human VAP-1. The compounds according to the present technology were also evaluated in terms of activity on a recombinant human DAO (diamine oxidase, R&D systems) by using as a substrate 1 mM putrescine with a method similar to the activity evaluation method for recombinant human VAP-1.

[2] = biological target: T3, recombinant human MAO-B (monoamine oxidase-B) (Homo sapiens, UniProt P27338); assay: Activity on recombinant human MAO-B, Amplex Red method, 1 mM benzylamine substrate; conditions: read-out: Inhibitory Activity (IC50, nM) MAO-B
T3 construct: purchased Sigma-Aldrich
T3 sequence (P27338 1-520): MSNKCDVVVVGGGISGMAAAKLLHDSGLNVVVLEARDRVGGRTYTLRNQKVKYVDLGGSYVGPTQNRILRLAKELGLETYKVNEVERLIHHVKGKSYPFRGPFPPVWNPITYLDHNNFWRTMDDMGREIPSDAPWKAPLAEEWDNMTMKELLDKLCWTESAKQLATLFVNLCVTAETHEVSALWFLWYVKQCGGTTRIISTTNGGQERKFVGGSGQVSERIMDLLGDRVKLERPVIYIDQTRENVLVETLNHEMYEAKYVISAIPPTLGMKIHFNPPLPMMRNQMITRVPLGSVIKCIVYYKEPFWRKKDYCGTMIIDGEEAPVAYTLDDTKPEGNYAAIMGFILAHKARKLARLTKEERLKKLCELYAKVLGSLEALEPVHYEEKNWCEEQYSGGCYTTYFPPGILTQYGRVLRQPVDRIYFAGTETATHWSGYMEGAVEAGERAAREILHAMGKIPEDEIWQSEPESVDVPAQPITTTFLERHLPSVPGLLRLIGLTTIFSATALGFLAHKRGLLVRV
In short: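 Fluorescence (544/590 nm) of resorufin formed from Amplex Red by HRP and enzyme-generated H2O2 was followed over 1-2 h. Substrates were 0.5 mM tyramine for MAO-A and 1 mM benzylamine for MAO-B; compounds were preincubated with enzyme for 30 min at 37° C. IC50 came from four-parameter logistic fitting of signal-rate inhibition.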

[3] = biological target: T4, recombinant human DAO (diamine oxidase) (Homo sapiens, UniProt P19801); assay: Activity on recombinant human DAO, Amplex Red method, 1 mM putrescine substrate; conditions: recombinant human DAO, read-out: Inhibitory Activity (IC50, nM) DAO
T4 construct: purchased R&D systems
T4 sequence (P19801 20-751): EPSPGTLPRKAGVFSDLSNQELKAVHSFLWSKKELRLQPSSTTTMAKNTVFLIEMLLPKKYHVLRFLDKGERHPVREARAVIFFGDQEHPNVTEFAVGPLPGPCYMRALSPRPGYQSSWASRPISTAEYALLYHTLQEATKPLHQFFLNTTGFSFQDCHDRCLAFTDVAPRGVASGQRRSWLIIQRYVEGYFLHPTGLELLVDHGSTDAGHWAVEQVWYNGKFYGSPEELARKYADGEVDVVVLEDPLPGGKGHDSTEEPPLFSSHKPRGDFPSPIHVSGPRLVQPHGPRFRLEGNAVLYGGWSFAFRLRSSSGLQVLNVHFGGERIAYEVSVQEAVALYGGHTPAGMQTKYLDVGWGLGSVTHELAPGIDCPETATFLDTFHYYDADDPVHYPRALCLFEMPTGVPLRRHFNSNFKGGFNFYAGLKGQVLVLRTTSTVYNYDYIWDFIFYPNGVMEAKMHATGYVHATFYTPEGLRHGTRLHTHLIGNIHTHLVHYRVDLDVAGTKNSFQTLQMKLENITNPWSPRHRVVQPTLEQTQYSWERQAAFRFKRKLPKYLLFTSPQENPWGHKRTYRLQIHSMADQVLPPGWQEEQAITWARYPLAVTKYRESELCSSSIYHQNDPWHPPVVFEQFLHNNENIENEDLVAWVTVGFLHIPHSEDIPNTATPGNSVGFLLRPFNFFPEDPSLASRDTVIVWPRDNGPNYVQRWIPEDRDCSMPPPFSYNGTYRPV
In short: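 Inhibition of recombinant human DAO (diamine oxidase, R&D systems) was assessed with the Amplex Red Hydrogen Peroxide Assay Kit. Hydrogen peroxide produced from 1 mM putrescine was detected through an HRP-coupled reaction that converts Amplex Red into fluorescent resorufin, read at 544 nm excitation and 590 nm emission. IC50 values came from four-parameter logistic fits in GraphPad Prism.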

[4] = 1 mM putrescine, * = between 10 and 100 nM, ** = between 300 and 1000 nM

| SMILES | IC50 (recombinant human VAP-1; 30 min preincubation at 37° C.) | IC50 ([1]; 0.5 mM tyramine) | IC50 ([2]; 1 mM benzylamine) | IC50 [3, 4] | IC50 (recombinant human VAP-1) | IC50 ([1]; 0.5 mM tyramine substrate) | IC50 ([2]; 1 mM benzylamine substrate) | IC50 ([3]; 1 mM putrescine substrate) |
| --- | --- | --- | --- | --- | --- | --- | --- | --- |
| NC/C(=C/F)Cn1ncn(-c2ccc(F)cc2)c1=O [Example 5, 2-[(2Z)-2-(aminomethyl)-3-fluoroprop-2-en-1-yl]-4-(4-fluorophenyl)-2,4-dihydro-3H-1,2,4-triazol-3-one] | 3.8 nM | 1600 nM | 260 nM | 1100 nM | – | – | – | – |
| NC/C(=C\F)Cn1ncn(-c2cccc(-c3ccc(Cl)nc3)c2)c1=O [Example 85, 2-[(2E)-2-(aminomethyl)-3-fluoroprop-2-en-1-yl]-4-[3-(6-chloropyridin-3-yl)phenyl]-2,4-dihydro-3H-1,2,4-triazol-3-one hydrochloride] | 0.62 nM | > 100000 nM | 1800 nM | < 10 nM | – | – | – | – |
| NC/C(=C\F)Cn1ncn(-c2cccc(-c3ccc4c(c3)OCCO4)c2)c1=O [Example 95, 2-[(2E)-2-(aminomethyl)-3-fluoroprop-2-en-1-yl]-4-[3-(2,3-dihydro-1,4-benzodioxin-6-yl)phenyl]-2,4-dihydro-3H-1,2,4-triazol-3-one hydrochloride] | 0.69 nM | > 100000 nM | 1460 nM | 37 nM | – | – | – | – |
| CC(C)c1nc(-c2ccc(-c3cc(-n4cnn(C/C(=C/F)CN)c4=O)ccn3)cc2)no1 [Example 205, 2-[(2E)-2-(aminomethyl)-3-fluoroprop-2-en-1-yl]-4-(2-{4-[5-(propan-2-yl)-1,2,4-oxadiazol-3-yl]phenyl}pyridin-4-yl)-2,4-dihydro-3H-1,2,4-triazol-3-one hydrochloride] | – | – | – | – | 1 nM | > 100000 nM | 240 nM | < 10 nM |
| NC/C(=C\F)Cn1ncn(-c2cccc(/C=C/c3ccsc3)n2)c1=O [Example 237, 2-[(2E)-2-(aminomethyl)-3-fluoroprop-2-en-1-yl]-4-{6-[(E)-2-(thiophen-3-yl)ethenyl]pyridin-2-yl}-2,4-dihydro-3H-1,2,4-triazol-3-one] | – | – | – | – | 2.4 nM | 20000 nM | < 100 nM | 170 nM |
| NC/C(=C\F)Cn1ncn(-c2cccc(-c3ccc(-c4ccon4)cc3)n2)c1=O [Example 176, 2-[(2E)-2-(aminomethyl)-3-fluoroprop-2-en-1-yl]-4-{6-[4-(1,2-oxazol-3-yl)phenyl]pyridin-2-yl}-2,4-dihydro-3H-1,2,4-triazol-3-one] | – | – | – | – | 0.83 nM | 7900 nM | 3320 nM | < 30 nM |
| CN1C(=O)CCc2cc(-c3cccc(-n4cnn(C/C(=C/F)CN)c4=O)n3)ccc21 [Example 198, 6-[6-[1-[(E)-2-(aminomethyl)-3-fluoro-allyl]-5-oxo-1,2,4-triazol-4-yl]-2-pyridyl]-1-methyl-3,4-dihydroquinolin-2-one hydrochloride] | – | – | – | – | 2.9 nM | > 100000 nM | > 10000 nM | 130 nM |
| Cc1ccc(-c2ccc(C(=O)N3CCOCC3)cc2)nc1-n1cnn(C/C(=C/F)CN)c1=O [Example 211, 2-[(2E)-2-(aminomethyl)-3-fluoroprop-2-en-1-yl]-4-{3-methyl-6-[4-(morpholin-4-ylcarbonyl)phenyl]pyridin-2-yl}-2,4-dihydro-3H-1,2,4-triazol-3-one hydrochloride] | – | – | – | – | 49 nM | > 100000 nM | > 10000 nM | 3500 nM |
